Measurements published in US8476292B2, “Amide and carbamate derivatives of N-{2-[4-amino-2-(ethoxymethyl)-1H-imidazo[4,5-c] quinolin-1-Yl]-1,1-dimethylethyl}methanesulfonamide and methods” (3M Innovative Properties Company, priority 2005, dated 2013).

Row | SMILES | melting point [°C]
1 | CCCCOC(=O)Nc1nc2ccccc2c2c1nc(COCC)n2CC(C)(C)NS(C)(=O)=O [Example 7, Butyl 2-Ethoxymethyl-1-{2-methyl-2-[(methylsulfonyl)amino]propyl}-1H-imidazo[4,5-c]quinolin-4-ylcarbamate] | 125 to 127
2 | CCOCc1nc2c(NC(=O)OCC)nc3ccccc3c2n1CC(C)(C)NS(C)(=O)=O [Example 5, Ethyl 2-Ethoxymethyl-1-{2-methyl-2-[(methylsulfonyl)amino]propyl}-1H-imidazo[4,5-c]quinolin-4-ylcarbamate] | 163 to 165
3 | CCOCc1nc2c(NC(=O)c3ccccc3)nc3ccccc3c2n1CC(C)(C)NS(C)(=O)=O [Example 2, N-(2-Ethoxymethyl-1-{2-methyl-2-[(methylsulfonyl)amino]propyl}-1H-imidazo[4,5-c]quinolin-4-yl)benzamide] | 80 to 83
4 | CCCOC(=O)Nc1nc2ccccc2c2c1nc(COCC)n2CC(C)(C)NS(C)(=O)=O [Example 6, Propyl 2-Ethoxymethyl-1-{2-methyl-2-[(methylsulfonyl)amino]propyl}-1H-imidazo[4,5-c]quinolin-4-ylcarbamate] | 177 to 179
5 | CCOCc1nc2c(NC(=O)C(C)C)nc3ccccc3c2n1CC(C)(C)NS(C)(=O)=O [Example 3] | 67 to 70
6 | CCOCc1nc2c(NC(C)=O)nc3ccccc3c2n1CC(C)(C)NS(C)(=O)=O [Example 1, N-(2-Ethoxymethyl-1-{2-methyl-2-[(methylsulfonyl)amino]propyl}-1H-imidazo[4,5-c]quinolin-4-yl)acetamide] | 75 to 76
